Source: patent US9994547B2, “Heteroarylamide inhibitors of TBK1” (Takeda Pharmaceutical Company Limited, priority 2014, dated 2018)

What follows are compounds tested against Full length human TBK1 (Homo sapiens (Human), UniProt Q9UHD2) (assay: Inhibition of TBK1 Enzyme (Example A)). Conditions: -log(IC50), IC50 molar; 3 nM TBK1, 25 μM ATP, 60 min RT.
Assay type: biochemical
Summary of the method: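 Full-length N-His human TBK1 from Sf9 baculovirus was tested with 11-point 2.5-fold dilutions (1% DMSO) in Hepes pH 7.4, MgCl2, EDTA, Brij, DTT. After 60 min RT and EDTA quench, microfluidic conversion was fitted and reported as pIC50.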

Full length human TBK1, sequence (Q9UHD2 whole entry): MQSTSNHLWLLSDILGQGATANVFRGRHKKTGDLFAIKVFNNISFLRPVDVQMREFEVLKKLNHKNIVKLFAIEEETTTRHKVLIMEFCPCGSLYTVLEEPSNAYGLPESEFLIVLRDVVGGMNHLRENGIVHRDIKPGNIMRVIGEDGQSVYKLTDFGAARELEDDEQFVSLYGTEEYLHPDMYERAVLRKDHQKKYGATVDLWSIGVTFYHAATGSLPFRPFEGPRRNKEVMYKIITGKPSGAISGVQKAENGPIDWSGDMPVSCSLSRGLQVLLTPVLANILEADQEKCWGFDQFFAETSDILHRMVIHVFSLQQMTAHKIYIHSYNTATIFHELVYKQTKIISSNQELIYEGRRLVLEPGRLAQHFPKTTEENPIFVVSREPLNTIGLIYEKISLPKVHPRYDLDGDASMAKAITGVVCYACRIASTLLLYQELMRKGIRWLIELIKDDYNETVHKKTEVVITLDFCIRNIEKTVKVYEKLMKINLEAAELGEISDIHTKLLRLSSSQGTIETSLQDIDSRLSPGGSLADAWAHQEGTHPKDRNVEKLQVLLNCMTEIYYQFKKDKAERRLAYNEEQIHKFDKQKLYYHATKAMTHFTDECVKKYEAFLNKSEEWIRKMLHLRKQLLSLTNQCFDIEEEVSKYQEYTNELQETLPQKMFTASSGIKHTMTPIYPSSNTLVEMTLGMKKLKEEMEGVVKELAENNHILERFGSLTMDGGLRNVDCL

In order of rising “TBK1 Inhibition (pIC50)” value:
1. CN(Cc1cnccn1)C(=O)CNc1cc(-c2cnc(NC(=O)C3CC3)cn2)cnc1C#N [Example 76, N-(5-(6-cyano-5-((2-(methyl(pyrazin-2-ylmethyl)amino)-2-oxoethyl)amino)pyridin-3-yl)pyrazin-2-yl)cyclopropanecarboxamide]  5.3
2. C[C@H](Nc1cc(-c2cnc(NC(=O)C3CC3)cn2)cnc1C#N)C(=O)N(C)c1cccnc1 [Example 74, (S)-N-(5-(6-cyano-5-((1-(methyl(pyridin-3-yl)amino)-1-oxopropan-2-yl)amino)pyridin-3-yl)pyrazin-2-yl)cyclopropanecarboxamide]  5.5
3. N#Cc1ncc(-c2cnc(NC(=O)C3CC3)cn2)cc1NCC(=O)N(CCCO)CC(F)(F)F [Example 90, N-(5-(6-cyano-5-((2-((3-hydroxypropyl)(2,2,2-trifluoroethyl)amino)-2-oxoethyl)amino)pyridin-3-yl)pyrazin-2-yl)cyclopropanecarboxamide]  5.6
4. CCC(C#N)N(C)C(=O)CNc1cc(-c2cnc(NC(=O)C3CC3)cn2)cnc1C#N (stereo not shown) [Example 92, N-(5-(6-cyano-5-((2-((1-cyanopropyl)(methyl)amino)-2-oxoethyl)amino)pyridin-3-yl)pyrazin-2-yl)cyclopropanecarboxamide]  6.2
5. C[C@H](Nc1cc(-c2cnc(NC(=O)C3CC3)cn2)cnc1C#N)C(=O)N(C)CCN(C)C [Example 67, (S)-N-(5-(6-cyano-5-((1-((2-(dimethylamino)ethyl)(methyl)amino)-1-oxopropan-2-yl)amino)pyridin-3-yl)pyrazin-2-yl)cyclopropanecarboxamide]  6.3
6. CN(CCS(C)(=O)=O)C(=O)CNc1cc(-c2cnc(NC(=O)C3CC3)cn2)cnc1C#N [Example 66, N-(5-(6-cyano-5-((2-(methyl(2-(methylsulfonyl)ethyl)amino)-2-oxoethyl)amino)pyridin-3-yl)pyrazin-2-yl)cyclopropanecarboxamide]  6.6
7. CN(C(=O)CNc1cc(-c2cnc(NC(=O)C3CC3)cn2)cnc1C#N)C1CCOC1 (stereo not shown) [Example 71, N-(5-(6-cyano-5-((2-(methyl(tetrahydrofuran-3-yl)amino)-2-oxoethyl)amino)pyridin-3-yl)pyrazin-2-yl)cyclopropanecarboxamide]  6.6
8. CN(C)C(=O)[C@@H](CC(F)F)Nc1cc(-c2cnc(NC(=O)C3CC3)cn2)cnc1C#N [Example 78, (R)-N-(5-(6-cyano-5-((1-(dimethylamino)-4,4-difluoro-1-oxobutan-2-yl)amino)pyridin-3-yl)pyrazin-2-yl)cyclopropanecarboxamide]  6.6
9. C[C@H](Nc1cc(-c2cnc(NC(=O)C3CC3)cn2)cnc1C#N)C(=O)N(CCO)CC(F)F [Example 79, (S)-N-(5-(6-cyano-5-((1-((2,2-difluoroethyl)(2-hydroxyethyl)amino)-1-oxopropan-2-yl)amino)pyridin-3-yl)pyrazin-2-yl)cyclopropanecarboxamide]  6.8
10. C[C@H](Nc1cc(-c2cnc(NC(=O)C3CC3)cn2)cnc1C#N)C(=O)N(CC#N)CCO [Example 93, (S)-N-(5-(6-cyano-5-((1-((cyanomethyl)(2-hydroxyethyl)amino)-1-oxopropan-2-yl)amino)pyridin-3-yl)pyrazin-2-yl)cyclopropanecarboxamide]  6.8
11. N#Cc1ncc(-c2cnc(NC(=O)C3CC3)cn2)cc1NCC(=O)N1CCOC[C@@H]1CF [Example 75, (R)-N-(5-(6-cyano-5-((2-(3-(fluoromethyl)morpholino)-2-oxoethyl)amino)pyridin-3-yl)pyrazin-2-yl)cyclopropanecarboxamide]  6.9
12. C[C@H](Nc1cc(-c2cnc(NC(=O)C3CC3)cn2)cnc1C#N)C(=O)N(C)CC1CC1 [Example 73, (S)-N-(5-(6-cyano-5-((1-((cyclopropylmethyl)(methyl)amino)-1-oxopropan-2-yl)amino)pyridin-3-yl)pyrazin-2-yl)cyclopropanecarboxamide]  7.0
13. C[C@@H](Nc1cc(-c2cnc(NC(=O)C3CC3)cn2)cnc1C#N)C(=O)N(C)CC(F)F [Example 83, (R)-N-(5-(6-cyano-5-((1-((2,2-difluoroethyl)(methyl)amino)-1-oxopropan-2-yl)amino)pyridin-3-yl)pyrazin-2-yl)cyclopropanecarboxamide]  7.0
14. CC[C@H](Nc1cc(-c2cnc(NC(=O)C3CC3)cn2)cnc1C#N)C(=O)N(C)CCO [Example 70, (S)-N-(5-(6-cyano-5-((1-((2-hydroxyethyl)(methyl)amino)-1-oxobutan-2-yl)amino)pyridin-3-yl)pyrazin-2-yl)cyclopropanecarboxamide]  7.1
15. CN(CCF)C(=O)C(CC(F)F)Nc1cc(-c2cnc(NC(=O)C3CC3)cn2)cnc1C#N (stereo not shown) [Example 85, N-(5-(6-cyano-5-((4,4-difluoro-1-((2-fluoroethyl)(methyl)amino)-1-oxobutan-2-yl)amino)pyridin-3-yl)pyrazin-2-yl)cyclopropanecarboxamide]  7.1
16. COCCN(CC(F)(F)F)C(=O)CNc1cc(-c2cnc(NC(=O)C3CC3)cn2)cnc1C#N [Example 77, N-(5-(6-cyano-5-((2-((2-methoxyethyl)(2,2,2-trifluoroethyl)amino)-2-oxoethyl)amino)pyridin-3-yl)pyrazin-2-yl)cyclopropanecarboxamide]  7.2
17. C[C@H]1COCCN1C(=O)CNc1cc(-c2cnc(NC(=O)C3CC3)cn2)cnc1C#N [Example 84, (S)-N-(5-(6-cyano-5-((2-(3-methylmorpholino)-2-oxoethyl)amino)pyridin-3-yl)pyrazin-2-yl)cyclopropanecarboxamide]  7.2
18. N#CCN(CCO)C(=O)CNc1cc(-c2cnc(NC(=O)C3CC3)cn2)cnc1C#N [Example 87, N-(5-(6-cyano-5-((2-((cyanomethyl)(2-hydroxyethyl)amino)-2-oxoethyl)amino)pyridin-3-yl)pyrazin-2-yl)cyclopropanecarboxamide]  7.2
19. CN(C)C(=O)C(CC(F)F)Nc1cc(-c2cnc(NC(=O)C3CC3)cn2)cnc1C#N (stereo not shown) [Example 68, N-(5-(6-cyano-5-((1-(dimethylamino)-4,4-difluoro-1-oxobutan-2-yl)amino)pyridin-3-yl)pyrazin-2-yl)cyclopropanecarboxamide]  7.4
20. CN(C)C(=O)[C@H](CC(F)F)Nc1cc(-c2cnc(NC(=O)C3CC3)cn2)cnc1C#N [Example 80, (S)-N-(5-(6-cyano-5-((1-(dimethylamino)-4,4-difluoro-1-oxobutan-2-yl)amino)pyridin-3-yl)pyrazin-2-yl)cyclopropanecarboxamide]  7.4
21. C[C@H](Nc1cc(-c2cnc(NC(=O)C3CC3)cn2)cnc1C#N)C(=O)N(C)[C@H](C)C#N [Example 88, N-(5-(6-cyano-5-(((S)-1-(((R)-1-cyanoethyl)(methyl)amino)-1-oxopropan-2-yl)amino)pyridin-3-yl)pyrazin-2-yl)cyclopropanecarboxamide]  7.6
22. CC(C#N)N(C)C(=O)[C@H](C)Nc1cc(-c2cnc(NC(=O)C3CC3)cn2)cnc1C#N (stereo partly drawn) [Example 69, N-(5-(6-cyano-5-(((2S)-1-((1-cyanoethyl)(methyl)amino)-1-oxopropan-2-yl)amino)pyridin-3-yl)pyrazin-2-yl)cyclopropanecarboxamide]  7.7
23. C[C@H](Nc1cc(-c2cnc(NC(=O)C3CC3)cn2)cnc1C#N)C(=O)N1CCOC[C@@H]1C [Example 91, N-(5-(6-cyano-5-(((S)-1-((S)-3-methylmorpholino)-1-oxopropan-2-yl)amino)pyridin-3-yl)pyrazin-2-yl)cyclopropanecarboxamide]  7.7
24. N#Cc1ncc(-c2cnc(NC(=O)C3CC3)cn2)cc1NCC(=O)N(CCO)CC(F)F [Example 72, N-(5-(6-cyano-5-((2-((2,2-difluoroethyl)(2-hydroxyethyl)amino)-2-oxoethyl)amino)pyridin-3-yl)pyrazin-2-yl)cyclopropanecarboxamide]  7.8
25. C[C@H](Nc1cc(-c2cnc(NC(=O)C3CC3)cn2)cnc1C#N)C(=O)N1CCOC[C@@H]1C#N [Example 81, N-(5-(6-cyano-5-(((S)-1-((S)-3-cyanomorpholino)-1-oxopropan-2-yl)amino)pyridin-3-yl)pyrazin-2-yl)cyclopropanecarboxamide]  7.8
26. COCCN(CC(F)F)C(=O)CNc1cc(-c2cnc(NC(=O)C3CC3)cn2)cnc1C#N [Example 82, N-(5-(6-cyano-5-((2-((2,2-difluoroethyl)(2-methoxyethyl)amino)-2-oxoethyl)amino)pyridin-3-yl)pyrazin-2-yl)cyclopropanecarboxamide]  7.8
27. C[C@H](Nc1cc(-c2cnc(NC(=O)C3CC3)cn2)cnc1C#N)C(=O)N(C)[C@@H](C)C#N [Example 89, N-(5-(6-cyano-5-(((S)-1-(((S)-1-cyanoethyl)(methyl)amino)-1-oxopropan-2-yl)amino)pyridin-3-yl)pyrazin-2-yl)cyclopropanecarboxamide]  7.9
28. CC1CC1C(=O)Nc1cnc(-c2cnc(C#N)c(N[C@@H](C)C(=O)N(C)CC(F)F)c2)cn1 (stereo partly drawn) [Example 86, N-(5-(6-cyano-5-(((S)-1-((2,2-difluoroethyl)(methyl)amino)-1-oxopropan-2-yl)amino)pyridin-3-yl)pyrazin-2-yl)-2-methylcyclopropanecarboxamide]  8.4
